Assays:
TLR1^-/- macrophages [1] = assay type: cell-based, mouse
TLR1^-/- macrophages [2] = assay type: cell-based, mouse; remark: listed apart in the source
[3] = test system: peritoneal macrophages of wild-type mice; assay type: cell-based, mouse
TLR2^-/- macrophages = details: Science 291, 1544, 2001; cited from earlier work
TLR1 and TLR2 [4] = target: T1, TLR1 and TLR2 (Homo sapiens, UniProt O60603+Q15399); assay: NF-κB pELAM-luciferase reporter assay in HEK 293 cells co-expressing TLR1 and TLR2; assay type: cell-based; set-up: expressed in transfected cells; host or cells: HEK 293 cells, transient transfection; details: co-expression of TLR1 with TLR2, 10 ng/ml for 8 h
T1 sequence (Q15399 25-786, species assumed): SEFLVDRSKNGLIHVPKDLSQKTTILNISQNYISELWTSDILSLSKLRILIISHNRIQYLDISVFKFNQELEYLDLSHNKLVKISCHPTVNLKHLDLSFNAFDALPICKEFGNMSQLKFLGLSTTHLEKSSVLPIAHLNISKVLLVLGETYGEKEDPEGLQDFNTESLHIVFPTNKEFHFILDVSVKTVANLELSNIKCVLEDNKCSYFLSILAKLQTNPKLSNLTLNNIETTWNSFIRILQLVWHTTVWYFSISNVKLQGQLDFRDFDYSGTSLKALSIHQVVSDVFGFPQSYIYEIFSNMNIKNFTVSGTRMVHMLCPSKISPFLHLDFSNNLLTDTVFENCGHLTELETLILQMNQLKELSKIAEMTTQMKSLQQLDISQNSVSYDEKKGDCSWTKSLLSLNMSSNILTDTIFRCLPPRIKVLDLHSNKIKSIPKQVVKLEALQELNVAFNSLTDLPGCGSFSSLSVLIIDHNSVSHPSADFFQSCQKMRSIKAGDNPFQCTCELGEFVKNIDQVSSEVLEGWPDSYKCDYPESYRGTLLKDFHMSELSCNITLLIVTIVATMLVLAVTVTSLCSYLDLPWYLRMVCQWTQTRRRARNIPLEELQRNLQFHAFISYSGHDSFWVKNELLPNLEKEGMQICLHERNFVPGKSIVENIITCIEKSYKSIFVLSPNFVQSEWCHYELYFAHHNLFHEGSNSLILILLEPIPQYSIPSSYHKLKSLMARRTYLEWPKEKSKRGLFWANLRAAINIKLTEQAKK
T1 sequence (O60603 21-784, species assumed): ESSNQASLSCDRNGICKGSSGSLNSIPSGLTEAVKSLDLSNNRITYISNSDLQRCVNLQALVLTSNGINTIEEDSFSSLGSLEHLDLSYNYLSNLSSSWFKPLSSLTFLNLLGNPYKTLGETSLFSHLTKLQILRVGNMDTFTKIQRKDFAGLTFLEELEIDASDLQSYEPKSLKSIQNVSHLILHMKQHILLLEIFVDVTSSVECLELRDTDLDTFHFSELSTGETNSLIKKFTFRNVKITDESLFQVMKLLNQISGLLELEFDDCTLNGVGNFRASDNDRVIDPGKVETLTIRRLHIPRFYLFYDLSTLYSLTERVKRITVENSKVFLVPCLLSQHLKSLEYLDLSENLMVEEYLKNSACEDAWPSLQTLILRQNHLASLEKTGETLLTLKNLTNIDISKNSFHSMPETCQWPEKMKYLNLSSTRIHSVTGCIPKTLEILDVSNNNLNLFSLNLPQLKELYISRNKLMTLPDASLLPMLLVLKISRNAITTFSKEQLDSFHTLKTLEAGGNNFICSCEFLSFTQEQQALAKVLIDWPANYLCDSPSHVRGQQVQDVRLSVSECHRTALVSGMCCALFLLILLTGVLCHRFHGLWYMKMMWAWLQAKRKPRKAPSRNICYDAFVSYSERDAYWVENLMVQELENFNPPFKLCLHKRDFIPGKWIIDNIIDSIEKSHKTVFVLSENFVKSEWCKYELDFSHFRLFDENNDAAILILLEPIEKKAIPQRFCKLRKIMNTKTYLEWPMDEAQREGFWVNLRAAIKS
Description: (§1) HEK 293 cells were transformed with TLR1, TLR2 and TLR6 expression vectors, and pELAM-luciferase reporter plasmid were used together. For normalization of transfection efficiency by lipofectamine 2000 (Invitrogen), the indicated vector was used with pELAM-luciferase reporter plasmid (J. Bio. Chem. 274, 10689, 1999) and pRL-TK (Promega) to transfect transiently […] cells. 24 h after transfection, the cells were stimulated with 10 ng/ml of Pam3CSK4 for 8 h. Then, the cells were lysed, and luciferase activity was measured by using Dual-luciferase reporter assay system (Promega) according to the manufacturer's instruction.

TLR6 and TLR2 = target: T2, TLR6 and TLR2 (Homo sapiens, UniProt O60603); assay: NF-κB pELAM-luciferase reporter assay in HEK 293 cells co-expressing TLR6 and TLR2; assay type: cell-based; details: co-expression of TLR6 and TLR2, 10 ng/ml for 8 h
T2 construct: expressed in transfected cells; host or cells: HEK 293 cells, transient transfection
T2 sequence (O60603 21-784, species assumed): as above
Description: as §1

TLR1 and TLR2 [5] = target: T1, TLR1 and TLR2; assay: Co-immunoprecipitation of HA-tagged TLR1 and Flag-tagged TLR2 in HEK293 cells; assay type: binding; set-up: expressed in transfected cells; host or cells: HEK293 cells
Description: HEK293 cells were co-transfected with 3 μg Flag-tagged TLR2, TLR4 or 6 μg HA-tagged TLR1. After 36 h, the cells were lysed in the lysis buffer containing 1.0% Nonidet P-40, 150 mM NaCl, 20 mM tris-HCl (pH 7.5), 5 mM EDTA and aprotease inhibitor cocktail tablet, Complete (Roche Diagnostics). The solution was pre-treated for 1 h with protein G-sepharose, and immunoprecipitated for 12 h by using 2 μg anti-Flag M2 antibody or 2 μg anti-HA 12 CA5 antibody. The beads were washed four times in the lysis buffer, and the immunoprecipitated proteins were eluted in SDS-PAGE sample buffer solution, separated on SDS-PAGE and transferred onto PVDF membrane. HA-tagged TLR1 was detected with anti-HA antibody (Roche Diagnostics) and HRP-tagged anti-mouse Ig antibody. Flag-tagged proteins were identified with the second antibody, HRP-conjugated anti-Flag M2 antibody. Then, the antibodies were detected by enhanced chemiluminescence system (Dupont).

TLR2 = target: T3, TLR2 (Homo sapiens, UniProt O60603); assay: NF-κB pELAM-luciferase reporter assay in HEK 293 cells expressing TLR2; assay type: cell-based; details: expression of TLR2, 10 ng/ml for 8 h
T3 construct: expressed in transfected cells; host or cells: HEK 293 cells, transient transfection
T3 sequence (O60603 21-784, species assumed): as above
T3 sequence (Q15399 25-786, species assumed, further chain): as the sequence (Q15399 25-786, species assumed) above
Description: as §1

In the case of “19 kD lipoprotein: Native 19-kD lipoprotein purified from Mycobacterium tuberculosis”, the TNFα production (TLR1^-/- macrophages [1]) is reported as “impaired”, the IL-6 production (TLR1^-/- macrophages [2]) is reported as “lower in TLR1^-/- macrophages compared with that of wild-type cells” and the TNFα production [3] is reported as “generated TNFα in a dose-dependent manner”. For the same substance, the Cytokine production (TLR2^-/- macrophages) was “inhibited”.
With MALP-2 the TNFα production (TLR1^-/- macrophages [1]) was “responded normally”.
With “N-palmitoyl-S-dipalmitoyl glyceryl (Pam3) CSK4 [Pam3CSK4]” the “NF-κB activation (luciferase activity)” value (TLR1 and TLR2 [4]) was “significantly enhanced the activation”, the TNFα production (TLR1^-/- macrophages [1]) was “significantly impaired” and the “NF-κB activation (luciferase activity)” value (TLR6 and TLR2) was “did not augment the NF-κB activation”. The “extent of association between TLR1 and TLR2 on stimulation” value (TLR1 and TLR2 [5]) was “did not affect” and the “NF-κB activation (luciferase activity)” value (TLR2) was “conferred the NF-κB activation”.
With “N-lauryl-S-dilauryl gylceryl (Lau3)CSK4 [Lau3CSK4]” the TNFα production (TLR1^-/- macrophages [1]) was “impaired”.
For “N-palmitoyl-S-dilauryl glyceryl (N-Pam-S-Lau2)CSK4 [Lau2N-PamCSK4]”, the TNFα production (TLR1^-/- macrophages [1]) was “considerably impaired”.
In the case of “N-myristyl-S-dimyristyl glyceryl (Myr3) CSK4 [Myr3CSK4]”, the TNFα production (TLR1^-/- macrophages [1]) is reported as “impaired”.

Source: patent US20060059579A1, “Model animals non-responsive to mycobacteria-origin lipoprotein/lipopeptide” (Japan Science and Technology Agency, priority 2002, published 2006)
